Assay results as given in PMC5218480 (PLoS ONE, 2017).

System: MV-4-11 cells
Assay: Gene expression microarray analysis (Affymetrix PrimeView) and GSEA
Format: cell-based, human
Set-up: RFU PODN (11730768_x_at) / Fold change /veh PODN (11730768_x_at) / RFU LINC00158 (11744669_a_at) / Fold change /veh LINC00158 (11744669_a_at) / RFU DUSP10 (11751237_a_at) / Fold change /veh DUSP10 (11751237_a_at) / RFU ID3 (11757404_x_at) / Fold change /veh ID3 (11757404_x_at) / RFU PLEKHG5 (11737974_s_at) / Fold change /veh PLEKHG5 (11737974_s_at) / RFU LRRC4B (11730491_at) / Fold change /veh LRRC4B (11730491_at) / RFU GIMAP4 (11747438_a_at) / Fold change /veh GIMAP4 (11747438_a_at) / RFU KRT8 (11758183_x_at) / Fold change /veh KRT8 (11758183_x_at) / RFU CNN1 (11734310_a_at) / Fold change /veh CNN1 (11734310_a_at) / RFU VPS37D (11726825_at) / Fold change /veh VPS37D (11726825_at) / RFU C10orf10 (11716522_x_at) / Fold change /veh C10orf10 (11716522_x_at) / RFU KIR2DL2 /// KIR2DL4 /// KIR2DL5A /// KIR2DL5B /// KIR2DS1 /// KIR2DS2 /// KIR2DS3 /// KIR2DS4 /// KIR3DL3 /// KIR3DL3 /// KIR3DS1 (11738374_at) / Fold change /veh KIR2DL2 /// KIR2DL4 /// KIR2DL5A /// KIR2DL5B /// KIR2DS1 /// KIR2DS2 /// KIR2DS3 /// KIR2DS4 /// KIR3DL3 /// KIR3DL3 /// KIR3DS1 (11738374_at) / RFU C1QL1 (11718748_at) / Fold change /veh C1QL1 (11718748_at) / RFU TMPRSS4 (11747572_a_at) / Fold change /veh TMPRSS4 (11747572_a_at) / RFU HAMP (11756126_x_at) / Fold change /veh HAMP (11756126_x_at) / RFU RNFT2 (11725882_a_at) / Fold change /veh RNFT2 (11725882_a_at) / RFU NR4A2 (11747474_a_at) / Fold change /veh NR4A2 (11747474_a_at) / RFU ABCC12 (11746883_a_at) / Fold change /veh ABCC12 (11746883_a_at) / RFU TMEM136 (11760407_x_at) / Fold change /veh TMEM136 (11760407_x_at) / RFU CLDN22 /// WWC2 (11732394_at) / Fold change /veh CLDN22 /// WWC2 (11732394_at) / RFU HLA-DPB1 (11760878_x_at) / Fold change /veh HLA-DPB1 (11760878_x_at) / RFU SPINT1 (11716480_a_at) / Fold change /veh SPINT1 (11716480_a_at) / RFU GAP43 (11754022_s_at) / Fold change /veh GAP43 (11754022_s_at) / RFU A4GNT (11735810_at) / Fold change /veh A4GNT (11735810_at) / RFU PRB3 (11715151_x_at) / Fold change /veh PRB3 (11715151_x_at) / RFU TUBB4B (11761932_at) / Fold change /veh TUBB4B (11761932_at) / RFU CAPN14 (11732068_a_at) / Fold change /veh CAPN14 (11732068_a_at) / RFU TMCC2 (11721928_a_at) / Fold change /veh TMCC2 (11721928_a_at) / RFU IRGQ (11745062_a_at) / Fold change /veh IRGQ (11745062_a_at) / RFU FAM174B (11720279_a_at) / Fold change /veh FAM174B (11720279_a_at) / RFU TMPRSS4 (11748680_a_at) / Fold change /veh TMPRSS4 (11748680_a_at) / RFU FAM212B (11763350_a_at) / Fold change /veh FAM212B (11763350_a_at) / RFU PLEKHG5 (11743358_a_at) / Fold change /veh PLEKHG5 (11743358_a_at) / RFU ZSCAN30 (11745921_a_at) / Fold change /veh ZSCAN30 (11745921_a_at) / RFU CMKLR1 (11741424_a_at) / Fold change /veh CMKLR1 (11741424_a_at) / RFU LOC101060620 /// MAPK8IP1 (11723275_at) / Fold change /veh LOC101060620 /// MAPK8IP1 (11723275_at) / RFU SPTSSB (11747773_x_at) / Fold change /veh SPTSSB (11747773_x_at) / RFU PRSS12 (11739890_at) / Fold change /veh PRSS12 (11739890_at) / RFU BIN1 (11741810_x_at) / Fold change /veh BIN1 (11741810_x_at) / RFU WNT11 (11732464_a_at) / Fold change /veh WNT11 (11732464_a_at) / RFU C10orf10 (11716521_a_at) / Fold change /veh C10orf10 (11716521_a_at) / RFU C5orf56 (11738089_at) / Fold change /veh C5orf56 (11738089_at) / RFU CYB561 (11721691_x_at) / Fold change /veh CYB561 (11721691_x_at) / RFU ANKRD19P (11752326_a_at) / Fold change /veh ANKRD19P (11752326_a_at) / RFU OR2T12 /// OR2T33 /// OR2T8 (11738714_s_at) / Fold change /veh OR2T12 /// OR2T33 /// OR2T8 (11738714_s_at) / RFU VCAN (11748164_a_at) / Fold change /veh VCAN (11748164_a_at) / RFU JSRP1 (11732532_at) / Fold change /veh JSRP1 (11732532_at) / RFU KRTAP10-11 (11738290_x_at) / Fold change /veh KRTAP10-11 (11738290_x_at) / RFU MYO3A (11730013_a_at) / Fold change /veh MYO3A (11730013_a_at) / RFU EBF3 (11725865_a_at) / Fold change /veh EBF3 (11725865_a_at) / RFU CAMK2N1 (11719241_x_at) / Fold change /veh CAMK2N1 (11719241_x_at) / RFU C5orf56 (11738088_a_at) / Fold change /veh C5orf56 (11738088_a_at) / RFU OLFML3 (11715873_a_at) / Fold change /veh OLFML3 (11715873_a_at) / RFU LOC100653217 /// NTM (11731650_a_at) / Fold change /veh LOC100653217 /// NTM (11731650_a_at) / RFU MAPK11 (11762145_a_at) / Fold change /veh MAPK11 (11762145_a_at) / RFU FIZ1 (11724087_x_at) / Fold change /veh FIZ1 (11724087_x_at) / RFU OASL (11726364_x_at) / Fold change /veh OASL (11726364_x_at) / RFU SOX15 (11748057_x_at) / Fold change /veh SOX15 (11748057_x_at) / RFU CD79A (11719716_a_at) / Fold change /veh CD79A (11719716_a_at) / RFU HIST1H1D (11736915_at) / Fold change /veh HIST1H1D (11736915_at) / RFU CASKIN2 (11723855_a_at) / Fold change /veh CASKIN2 (11723855_a_at) / RFU LOC730098 (11760151_x_at) / Fold change /veh LOC730098 (11760151_x_at) / RFU OR4N2 (11742367_at) / Fold change /veh OR4N2 (11742367_at) / RFU PRRT2 (11749266_a_at) / Fold change /veh PRRT2 (11749266_a_at) / RFU SNX32 (11753110_a_at) / Fold change /veh SNX32 (11753110_a_at) / RFU CDHR5 (11726645_a_at) / Fold change /veh CDHR5 (11726645_a_at) / RFU RCAN1 (11760418_a_at) / Fold change /veh RCAN1 (11760418_a_at) / RFU FAM167A (11723789_a_at) / Fold change /veh FAM167A (11723789_a_at) / RFU FAM26E (11764081_at) / Fold change /veh FAM26E (11764081_at) / RFU ISYNA1 (11749810_s_at) / Fold change /veh ISYNA1 (11749810_s_at) / RFU ACY1 (11761880_at) / Fold change /veh ACY1 (11761880_at) / RFU 11764098_at / Fold change /veh 11764098_at / RFU SAMD14 (11745864_x_at) / Fold change /veh SAMD14 (11745864_x_at) / RFU NPB (11741838_a_at) / Fold change /veh NPB (11741838_a_at) / RFU TMPRSS6 (11731388_a_at) / Fold change /veh TMPRSS6 (11731388_a_at) / RFU KRTAP10-2 (11738614_at) / Fold change /veh KRTAP10-2 (11738614_at) / RFU ARHGAP8 /// PRR5-ARHGAP8 (11727945_x_at) / Fold change /veh ARHGAP8 /// PRR5-ARHGAP8 (11727945_x_at) / RFU KRTAP5-7 /// NADSYN1 (11734609_at) / Fold change /veh KRTAP5-7 /// NADSYN1 (11734609_at) / RFU RASL12 (11751679_a_at) / Fold change /veh RASL12 (11751679_a_at) / RFU CDKN2B (11736163_a_at) / Fold change /veh CDKN2B (11736163_a_at) / RFU PRF1 (11729649_at) / Fold change /veh PRF1 (11729649_at) / RFU, ZNF638 /// ZNF638-IT1 / Fold change vs veh, ZNF638 /// ZNF638-IT1 / RFU, PANK3 / Fold change vs veh, PANK3 / RFU, SH3YL1 / Fold change vs veh, SH3YL1 / RFU, ZEB2 / Fold change vs veh, ZEB2 / RFU, NRIP1 / Fold change vs veh, NRIP1 / RFU, PTTG1IP / Fold change vs veh, PTTG1IP / RFU, CAPN2 / Fold change vs veh, CAPN2 / RFU, MED14 / Fold change vs veh, MED14 / RFU, SNORA58 / Fold change vs veh, SNORA58 / RFU, C1orf63 / Fold change vs veh, C1orf63 / RFU, LRRFIP1 / Fold change vs veh, LRRFIP1 / RFU, NDUFAF7 / Fold change vs veh, NDUFAF7 / RFU, SLC12A2 / Fold change vs veh, SLC12A2 / RFU, IBTK / Fold change vs veh, IBTK / RFU, ESF1 / Fold change vs veh, ESF1 / Fold change vs veh, TMEM50B / RFU, TAOK1 / Fold change vs veh, TAOK1 / RFU, ACBD3 / Fold change vs veh, ACBD3 / RFU, TMA16 / Fold change vs veh, TMA16 / RFU, RWDD3 / Fold change vs veh, RWDD3 / RFU, BCAT1 / Fold change vs veh, BCAT1 / RFU, EDEM3 / Fold change vs veh, EDEM3 / RFU, TMEM33 / Fold change vs veh, TMEM33 / RFU, WDR75 / Fold change vs veh, WDR75 / RFU, AHCTF1 / Fold change vs veh, AHCTF1 / RFU, TFRC / Fold change vs veh, TFRC / RFU, ZDHHC17 / Fold change vs veh, ZDHHC17 / RFU, NOM1 / Fold change vs veh, NOM1 / RFU, ARL8B / Fold change vs veh, ARL8B / RFU, ZBTB11 / Fold change vs veh, ZBTB11 / RFU, TAMM41 / Fold change vs veh, TAMM41 / RFU, KIAA1704 /// LOC100996395 / Fold change vs veh, KIAA1704 /// LOC100996395 / RFU, ING1 / Fold change vs veh, ING1 / RFU, TRMT61B / Fold change vs veh, TRMT61B / RFU, FUBP3 / Fold change vs veh, FUBP3 / RFU, TP53 / Fold change vs veh, TP53 / RFU, TNKS2 / Fold change vs veh, TNKS2 / RFU, ZFP14 / Fold change vs veh, ZFP14 / RFU, ACTR2 / Fold change vs veh, ACTR2 / RFU, PPP3R1 / Fold change vs veh, PPP3R1 / RFU, PIK3R1 / Fold change vs veh, PIK3R1 / RFU, HNRNPA1 / Fold change vs veh, HNRNPA1 / RFU, RNF170 / Fold change vs veh, RNF170 / RFU, ZNF28 / Fold change vs veh, ZNF28 / RFU, RNGTT / Fold change vs veh, RNGTT / RFU, OGT / Fold change vs veh, OGT / RFU, BRD1 / Fold change vs veh, BRD1 / RFU, MARS / Fold change vs veh, MARS / RFU, ZNF655 / Fold change vs veh, ZNF655 / RFU, FAHD1 / Fold change vs veh, FAHD1 / RFU, BDP1 / Fold change vs veh, BDP1 / RFU, LRRCC1 / Fold change vs veh, LRRCC1 / RFU, ARID1A / Fold change vs veh, ARID1A / RFU, ZNF146 / Fold change vs veh, ZNF146 / RFU, ZNF330 / Fold change vs veh, ZNF330 / RFU, GPN3 / Fold change vs veh, GPN3 / RFU, C9orf123 / Fold change vs veh, C9orf123 / RFU, N4BP2L2 / Fold change vs veh, N4BP2L2 / RFU, ARFIP1 / Fold change vs veh, ARFIP1 / RFU, FAM179B / Fold change vs veh, FAM179B / RFU, BCL10 / Fold change vs veh, BCL10 / RFU, UHRF1BP1L / Fold change vs veh, UHRF1BP1L / RFU, BET1 / Fold change vs veh, BET1 / RFU, CNOT2 / Fold change vs veh, CNOT2 / RFU, ZNF268 / Fold change vs veh, ZNF268 / Fold change vs veh, ZNF507 / RFU, DGCR2 / Fold change vs veh, DGCR2 / RFU, WDSUB1 / Fold change vs veh, WDSUB1 / Fold change vs veh, HSP90B1 /// MIR3652 / RFU, ADSS / Fold change vs veh, ADSS / RFU, GK / Fold change vs veh, GK / RFU, ZNF148 / Fold change vs veh, ZNF148 / RFU, TAF9 / Fold change vs veh, TAF9 / RFU, SLC1A5 / Fold change vs veh, SLC1A5 / RFU, SLMO2 / Fold change vs veh, SLMO2 / RFU, ABCC4 / Fold change vs veh, ABCC4 / RFU, LOC101060439 /// RAP1B / Fold change vs veh, LOC101060439 /// RAP1B / RFU, RFX7 / Fold change vs veh, RFX7 / RFU, GTPBP10 / Fold change vs veh, GTPBP10 / RFU, CNEP1R1 / Fold change vs veh, CNEP1R1 / RFU, BIVM-ERCC5 /// ERCC5 / Fold change vs veh, BIVM-ERCC5 /// ERCC5 / RFU, ILF3 / Fold change vs veh, ILF3 / RFU 11762660_at / Fold change /veh 11762660_at / RFU VCAN (11757783_s_at) / Fold change /veh VCAN (11757783_s_at) / RFU DDX43 (11728927_at) / Fold change /veh DDX43 (11728927_at) / RFU KRT8 (11758188_x_at) / Fold change /veh KRT8 (11758188_x_at) / RFU NKD1 (11759106_at) / Fold change /veh NKD1 (11759106_at) / RFU SRD5A1 (11742802_a_at) / Fold change /veh SRD5A1 (11742802_a_at) / RFU TPSAB1 /// TPSB2 (11721975_s_at) / Fold change /veh TPSAB1 /// TPSB2 (11721975_s_at) / RFU GSTM3 (11746129_a_at) / Fold change /veh GSTM3 (11746129_a_at) / RFU IL23R (11737362_x_at) / Fold change /veh IL23R (11737362_x_at) / RFU TMEM51 (11727254_a_at) / Fold change /veh TMEM51 (11727254_a_at) / RFU PIWIL2 (11732686_x_at) / Fold change /veh PIWIL2 (11732686_x_at) / RFU ORM1 (11744905_x_at) / Fold change /veh ORM1 (11744905_x_at) / RFU CCDC152 (11743942_at) / Fold change /veh CCDC152 (11743942_at) / RFU ECM1 (11717891_a_at) / Fold change /veh ECM1 (11717891_a_at) / RFU IL23R (11748794_a_at) / Fold change /veh IL23R (11748794_a_at) / RFU TNFAIP8L3 (11732012_x_at) / Fold change /veh TNFAIP8L3 (11732012_x_at) / RFU MBOAT4 (11741988_at) / Fold change /veh MBOAT4 (11741988_at) / RFU 11764193_at / Fold change /veh 11764193_at / RFU TMEM53 (11763286_at) / Fold change /veh TMEM53 (11763286_at) / RFU MAGEB2 (11727129_at) / Fold change /veh MAGEB2 (11727129_at) / RFU TMEM200A (11744735_a_at) / Fold change /veh TMEM200A (11744735_a_at) / RFU CCDC152 (11751479_a_at) / Fold change /veh CCDC152 (11751479_a_at) / RFU FAM211A (11726209_a_at) / Fold change /veh FAM211A (11726209_a_at) / RFU RGS16 (11746705_a_at) / Fold change /veh RGS16 (11746705_a_at) / RFU VCAN (11755009_s_at) / Fold change /veh VCAN (11755009_s_at) / RFU RHOB (11743442_s_at) / Fold change /veh RHOB (11743442_s_at) / RFU RGS16 (11720943_a_at) / Fold change /veh RGS16 (11720943_a_at) / RFU RGS16 (11720944_at) / Fold change /veh RGS16 (11720944_at) / RFU, VPS4B / Fold change vs veh, VPS4B / RFU, CREB1 / Fold change vs veh, CREB1 / RFU, DNAJC13 / Fold change vs veh, DNAJC13 / RFU, GNAQ / Fold change vs veh, GNAQ / RFU, CDK5R1 / Fold change vs veh, CDK5R1 / RFU, ZRANB3 / Fold change vs veh, ZRANB3 / RFU, CUL4A / Fold change vs veh, CUL4A / RFU, CCNY / Fold change vs veh, CCNY / RFU, UFL1 / Fold change vs veh, UFL1 / RFU, COG3 / Fold change vs veh, COG3 / RFU, DIAPH2 / Fold change vs veh, DIAPH2 / RFU, SKA2 / Fold change vs veh, SKA2 / RFU, AFF3 / Fold change vs veh, AFF3 / RFU, LMF1 / Fold change vs veh, LMF1 / RFU, IPO11 / Fold change vs veh, IPO11 / RFU, DFFB / Fold change vs veh, DFFB / RFU, FOXP1 / Fold change vs veh, FOXP1 / RFU, CARD8 / Fold change vs veh, CARD8 / RFU, STRN3 / Fold change vs veh, STRN3 / RFU, ADK / Fold change vs veh, ADK / RFU, RASSF2 / Fold change vs veh, RASSF2 / RFU, WIPF1 / Fold change vs veh, WIPF1 / RFU, LARP1B / Fold change vs veh, LARP1B / RFU, RASA1 / Fold change vs veh, RASA1 / RFU, RB1 / Fold change vs veh, RB1 / RFU, PPFIA1 / Fold change vs veh, PPFIA1 / RFU, MAT2A / Fold change vs veh, MAT2A / RFU, CCT5 / Fold change vs veh, CCT5 / RFU, WDR92 / Fold change vs veh, WDR92 / RFU, CUX1 / Fold change vs veh, CUX1 / RFU, TTC7A / Fold change vs veh, TTC7A / RFU, TMEM135 / Fold change vs veh, TMEM135 / RFU, DEPTOR / Fold change vs veh, DEPTOR / RFU, CPM / Fold change vs veh, CPM / RFU, DNAJB6 / Fold change vs veh, DNAJB6 / RFU, CACNA2D3 / Fold change vs veh, CACNA2D3 / RFU, DTX4 / Fold change vs veh, DTX4 / RFU, TFCP2 / Fold change vs veh, TFCP2 / RFU, GMCL1 /// GMCL1P1 / Fold change vs veh, GMCL1 /// GMCL1P1 / RFU, AEBP2 / Fold change vs veh, AEBP2 / RFU, SNHG1 /// SNORD22 /// SNORD25 /// SNORD26 /// SNORD27 /// SNORD28 /// SNORD29 /// SNORD31 / Fold change vs veh, SNHG1 /// SNORD22 /// SNORD25 /// SNORD26 /// SNORD27 /// SNORD28 /// SNORD29 /// SNORD31 / Fold change (Aza/veh), C12orf56 (ProbeSet 11735607_a_at) / Fold change (ACY-1035/veh), C12orf56 (ProbeSet 11735607_a_at) / Fold change (Aza/veh), FGFR1OP (ProbeSet 11751329_s_at) / Fold change (ACY-1035/veh), FGFR1OP (ProbeSet 11751329_s_at) / Fold change (Aza/veh), VPS36 (ProbeSet 11739960_a_at) / Fold change (ACY-1035/veh), VPS36 (ProbeSet 11739960_a_at) / RFU SYPL1 (11715823_x_at) / Fold change /veh SYPL1 (11715823_x_at) / RFU IGFBP7 (11715501_s_at) / Fold change /veh IGFBP7 (11715501_s_at) / RFU REEP3 (11722064_at) / Fold change /veh REEP3 (11722064_at) / RFU IGLL1 (11728026_x_at) / Fold change /veh IGLL1 (11728026_x_at): dose or concentration left out as unconfirmed
Settings: MV-4-11 cells, 48 hours

Nc1ncn([C@@H]2O[C@H](CO)[C@@H](O)[C@H]2O)c(=O)n1 [azacitidine]
Fold change /veh SOX15 (11748057_x_at): 1.06
